Reference: patent US8173764B2, “Solubilization and targeted delivery of drugs with self-assembling amphiphilic polymers” (AllExcel Inc., priority 2006, dated 2012)
≈ marks a conversion by molar mass, not a printed value. Read-outs that look alike come from different tables or passages of the source.

Experiments:
physchem = test: physchem
Description: (§1) The container bottoms were then attached to the bottom of a small jewelry ultrasonic cleaner bath using a water-resistant double-stick tape. Just enough water was added to the bath to immerse the weigh boats to about ⅓rd height. Sonication was performed for 15 minutes in steps of 5 minutes. The liquids were transferred to centrifuge tubes and centrifuged twice for 30 min. in a bench top centrifuge to pellet out undissolved dye. The supernatants were transferred to clean tubes and centrifuged again, to remove entrained solids. Suspensions of same amounts of dyes in same amount of distilled water as the amount of the polymer solution were treated in the same fashion, as controls. The resulting solutions were spotted (25 ul) on TLC plates to form circles from the drops. The intensities of the spots were compared with spots made from standards of dye solutions made in ethanol or ethanol/water to determine approximate concentrations; the spots are shown in FIG. 1. The solubilities of the dyes in water were determined by dissolving appropriate amount of the dye in […] deionized water (unbuffered) at room temperature, and adding (i.e. titrating with) further water as necessary to obtain saturated solutions.

[1] = Description: as §1

| SMILES | solubility (physchem; water, thermodynamic from solid) [µg/mL] | concentration of dye in 50 mg/ml polymer ([1]; 15 min) | concentration (solubility) of dye in H2O (physchem) [µg/mL] | concentration of dye in 50 mg/ml polymer [1] |
| --- | --- | --- | --- | --- |
| O=C1OC2(c3cc(Cl)c(O)cc3Oc3cc(O)c(Cl)cc32)c2ccccc21 [Dichlorofluorescein, dichlorofluorescein] | 10 (≈ 24.9 µM) | approximately 5 mg/ml | – | – |
| Cc1ccccc1/N=N/c1ccc(/N=N/c2c(O)ccc3ccccc23)c(C)c1 [Sudan IV] | – | – | 0 | approximately 0.2 mg/ml |
